In patent publication US20080153872A1, “Bis-(Coumarin) Compounds With Anti-Inflammatory Activity” (priority 2005, published 2008):

Legend:
[1] = system: Balb/C mice; assay: Ovalbumin induced pulmonary eosinophilia in mice; format: in vivo, mouse; settings: OVA sensitized and challenged mice; i.n., i.p. or per os
Experimental: Male Balb/C mice with a body weight of 20-25 g are randomly divided into groups, and sensitized by an i.p. injection of ovalbumin (OVA, Sigma) on day zero and day fourteen. On the twentieth day, the mice are subjected to a challenge test by i.n. (intranasal) application of OVA (positive control or test groups) or PBS (negative control). The compounds are administered daily i.n., i.p. or per os in different doses starting 2 days before the challenge and up to the completion of the test. Compounds are administered as suspension either in PBS, methyl cellulose or carboxymethyl cellulose with addition od DMSO (up to 5% of the total volume). 48 hours after i.n. application of OVA, the animals are then anaesthetized to obtain bronchoalveolar lavage fluid (BALF), which is used to determine total protein concentration as well as concentrations of cytokines such as IL-1β and TNF-α, absolute number of cells, and percentage of eosinophils in BALF. Bronchoalveolar lavage (BAL) is performed by infusing 1 mL of PBS divided into 3 separate volumes (0.4, 0.3 and 0.3 ml) through trachea into the lungs. The fluid is immediately withdrawn and the cell suspension stored into previously prepared 1.5 mL Eppendorf tube. Bronchoalveolar lavage fluid (BALF) is then centrifuged at […] for 5 min (4° C.). Cells are resuspended in 700 μL of PBS. To prepare cytospins, 320 μL of suspension is centrifuged at 250 rpm for 10 min (Cytospin-3, Shandon Instruments). Cells are stained with Dif-Quik (Dade Behring) to determine percentage of eosinophils by counting of at least 100 cells. The remaining resuspended cells are used for total cell count in BALF analysis (Sysmex SF 3000). Finally, lungs are sampled and stored into 10% formalin for pathohistological evaluation of eosinophil and mononuclear infiltrate. Accumulation of eosinophils and mononuclear cells in peribronchial (PB) and perivascular (PV) lung tissue areas and in alveolar spaces is monitored.
Results can be expressed as (I) decrease of absolute cell number per mL in BALF, (II) decrease of number of eosinophils per mL in BALF, (III) reduction of relative number (percentage) of eosinophils in BALF, (IV) reduction of cytokine concentrations in BALF, as well as (V) suppression of accumulation of eosinophils and mononuclear cells in peribronchial (PB) and perivascular (PV) lung tissue areas and in alveolar spaces by pathohistological scoring of treated animals compared to positive control (OVA stimulated, but untreated animals).
Fluticasone and beclomethasone are used as standard anti-inflammatory substances, and compared for ability to inhibit eosinophilia to the negative and positive controls.

[2] = system: human PDE4; assay: Human PDE4 assay (U937); format: biochemical; settings: 10 μM concentration
Experimental: (§1) All compounds were dissolved in dimethyl sulfoxide (DMSO). Final concentration of the DMSO in all tests was 1% (v/v). Inhibition in all tests is considered preferred if it exceeds 50% at 10 μM concentration (or less).
PDE4 assay. PDE is implicated in diseases such as chronic obstructive pulmonary disease and neutrophilia. Human monocytic leukemia cell line U937 is pre-incubated at 25° C. in Tris-HCl buffer containing magnesium ions for 15 minutes. 1.01 μM tritium labeled cyclic adenosine monophosphate (cAMP) is added as substrate, followed by incubation at 25° C. for 20 minutes. Percentage of inhibition is calculated by comparing the adenosine levels in supernatant which is formed from cAMP in treated versus control cells.

[3] = system: CD1 mice; assay: PMA induced ear oedema in CD1 mice; format: in vivo, mouse; settings: topical, single dose of 250 or 100 μg/15 μL/ear; statistically significant vs positive control
[4] = target: T1, human 5-LO (Homo sapiens, UniProt P09917); assay: Human 5-Lipoxygenase, 5-LO, assay in peripheral mononuclear blood cells; format: cell-based; settings: 10 μM concentration, LTB4 readout
T1 construct: Human peripheral mononuclear blood cells were isolated using Ficoll density separation; endogenous in cells; host or cells: human peripheral blood mononuclear cells
T1 sequence (P09917 1-674): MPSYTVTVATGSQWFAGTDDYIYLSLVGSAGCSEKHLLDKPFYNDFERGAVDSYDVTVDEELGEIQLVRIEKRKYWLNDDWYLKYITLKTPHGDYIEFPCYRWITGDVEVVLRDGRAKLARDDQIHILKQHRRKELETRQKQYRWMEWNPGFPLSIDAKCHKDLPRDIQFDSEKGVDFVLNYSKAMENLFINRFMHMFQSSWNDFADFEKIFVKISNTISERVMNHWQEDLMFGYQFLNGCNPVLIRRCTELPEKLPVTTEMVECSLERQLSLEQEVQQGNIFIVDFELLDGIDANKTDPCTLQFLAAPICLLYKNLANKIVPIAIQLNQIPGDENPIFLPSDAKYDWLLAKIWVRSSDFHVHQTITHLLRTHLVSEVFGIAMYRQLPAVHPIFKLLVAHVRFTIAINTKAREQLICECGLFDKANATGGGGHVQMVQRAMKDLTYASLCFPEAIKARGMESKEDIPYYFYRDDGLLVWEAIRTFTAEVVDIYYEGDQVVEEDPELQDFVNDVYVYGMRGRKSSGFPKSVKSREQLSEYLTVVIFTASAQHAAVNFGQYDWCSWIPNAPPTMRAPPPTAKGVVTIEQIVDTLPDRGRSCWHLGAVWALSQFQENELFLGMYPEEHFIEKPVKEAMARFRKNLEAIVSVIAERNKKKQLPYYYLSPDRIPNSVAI
Experimental: as §1
Human peripheral mononuclear blood cells were isolated using Ficoll density separation. Cells were incubated in Hanks Balanced Salt Solution (HBSS) with compounds for 15 minutes at 37° C. Substrate (arachidonic acid) was added in 20 μM final concentration and cells were incubated for another 15 minutes. LTB4 as a final product of arachidonic acid metabolism was measured using competitive enzyme immunoassay (See, e.g., Safayhi, H. et al. Planta Medica 2000, 66, 110-113) and percentage of inhibition was calculated from the levels of LTB4 in cell supernatant.

| Compound | reduction of percentage of eosinophils and/or their total number in BALF and/or by histological scoring [1] | inhibition of human PDE4 activity [2] | suppression of ear oedema [3] | inhibition of human 5-LO [4] |
| --- | --- | --- | --- | --- |
| CC(=O)C(c1c(O)c2cccc(C(C)C)c2oc1=O)c1c(O)c2cccc(C(C)C)c2oc1=O [Example 19] | statistically significant reduction | significantly inhibited | considered active | significantly relevant activity |
| CC(C)c1cccc2c(O)c(C(CO)c3c(O)c4cccc(C(C)C)c4oc3=O)c(=O)oc12 [Example 30] | statistically significant reduction | significantly inhibited | considered active | significantly relevant activity |
| CC(C)c1cccc2c(O)c(C(C(=O)OCCO)c3c(O)c4cccc(C(C)C)c4oc3=O)c(=O)oc12 [Example 50] | statistically significant reduction | significantly inhibited | considered active | significantly relevant activity |
